{"source": "paper PMC11289455", "about": "(Scientific Reports, 2024)", "key": {"[1]": {"target": "T1, H2 (histamine H2 receptor) (Homo sapiens, UniProt P25021)", "T1 construct": "purchased Eurofins Cerep SafetyScreen44", "T1 sequence (P25021 whole entry)": "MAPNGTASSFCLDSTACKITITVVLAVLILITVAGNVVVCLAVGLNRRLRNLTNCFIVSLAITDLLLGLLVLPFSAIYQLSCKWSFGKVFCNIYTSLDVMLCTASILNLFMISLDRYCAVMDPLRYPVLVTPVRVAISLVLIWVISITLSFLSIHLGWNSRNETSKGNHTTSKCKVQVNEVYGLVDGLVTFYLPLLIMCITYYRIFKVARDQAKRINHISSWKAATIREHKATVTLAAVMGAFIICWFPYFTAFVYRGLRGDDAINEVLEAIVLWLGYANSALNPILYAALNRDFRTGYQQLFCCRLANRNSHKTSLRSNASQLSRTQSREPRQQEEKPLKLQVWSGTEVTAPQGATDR", "experiment": "SafetyScreen44: H2", "format": "binding"}, "[2]": {"target": "T2, ETA (endothelin receptor subtype A) (Homo sapiens, UniProt P25101)", "T2 construct": "purchased Eurofins Cerep SafetyScreen44", "T2 sequence (P25101 21-427)": "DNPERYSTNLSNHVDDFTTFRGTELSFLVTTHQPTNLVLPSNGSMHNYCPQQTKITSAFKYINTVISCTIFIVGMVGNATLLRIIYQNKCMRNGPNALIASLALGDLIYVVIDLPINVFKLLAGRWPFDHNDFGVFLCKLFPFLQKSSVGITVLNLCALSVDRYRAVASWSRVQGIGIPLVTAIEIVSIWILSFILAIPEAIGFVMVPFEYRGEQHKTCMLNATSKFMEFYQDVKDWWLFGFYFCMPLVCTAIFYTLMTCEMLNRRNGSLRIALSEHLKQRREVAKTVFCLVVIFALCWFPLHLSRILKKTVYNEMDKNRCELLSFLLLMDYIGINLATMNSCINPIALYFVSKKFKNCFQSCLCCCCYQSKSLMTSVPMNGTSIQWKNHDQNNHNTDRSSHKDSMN", "experiment": "SafetyScreen44: ETA", "format": "binding"}, "[3]": {"target": "T3, α1A (alpha-1A adrenergic receptor) (Homo sapiens, UniProt P35348)", "T3 construct": "purchased Eurofins Cerep SafetyScreen44", "T3 sequence (P35348 1-466)": "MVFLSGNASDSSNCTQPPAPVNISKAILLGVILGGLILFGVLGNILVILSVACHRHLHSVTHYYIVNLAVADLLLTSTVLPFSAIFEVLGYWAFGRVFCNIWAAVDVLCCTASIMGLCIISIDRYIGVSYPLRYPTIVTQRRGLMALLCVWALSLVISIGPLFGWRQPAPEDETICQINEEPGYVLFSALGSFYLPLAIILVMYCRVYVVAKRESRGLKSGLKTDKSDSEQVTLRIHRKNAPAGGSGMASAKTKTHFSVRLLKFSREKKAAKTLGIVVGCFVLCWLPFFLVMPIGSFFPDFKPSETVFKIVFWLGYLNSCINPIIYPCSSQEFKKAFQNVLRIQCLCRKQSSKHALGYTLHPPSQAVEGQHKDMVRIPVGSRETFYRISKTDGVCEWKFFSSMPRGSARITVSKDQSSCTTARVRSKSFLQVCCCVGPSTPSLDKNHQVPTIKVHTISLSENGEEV", "experiment": "SafetyScreen44: α1A", "format": "binding"}, "[4]": {"target": "T4, COX2 (Homo sapiens, UniProt P35354)", "T4 construct": "purchased Eurofins Cerep SafetyScreen44", "T4 sequence (P35354 18-604)": "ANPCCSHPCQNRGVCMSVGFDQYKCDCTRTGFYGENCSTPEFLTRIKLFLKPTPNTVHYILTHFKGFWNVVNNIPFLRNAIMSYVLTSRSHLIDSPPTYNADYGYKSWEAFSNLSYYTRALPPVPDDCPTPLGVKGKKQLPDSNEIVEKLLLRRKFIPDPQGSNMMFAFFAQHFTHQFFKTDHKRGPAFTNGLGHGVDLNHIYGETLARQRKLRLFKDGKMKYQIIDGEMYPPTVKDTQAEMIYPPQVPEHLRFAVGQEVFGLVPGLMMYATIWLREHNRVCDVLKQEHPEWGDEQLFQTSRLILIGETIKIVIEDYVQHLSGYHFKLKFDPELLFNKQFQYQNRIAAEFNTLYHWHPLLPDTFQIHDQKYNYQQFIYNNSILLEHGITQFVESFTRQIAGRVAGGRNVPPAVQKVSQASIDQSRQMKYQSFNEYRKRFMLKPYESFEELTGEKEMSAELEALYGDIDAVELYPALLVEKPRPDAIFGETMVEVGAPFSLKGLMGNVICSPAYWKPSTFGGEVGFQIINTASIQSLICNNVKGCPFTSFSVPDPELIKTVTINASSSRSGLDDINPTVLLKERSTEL", "experiment": "SafetyScreen44: COX2", "format": "biochemical"}, "[5]": {"target": "T5, 5-HT2A (serotonin 2A receptor) (Homo sapiens, UniProt P28223)", "T5 construct": "purchased Eurofins Cerep SafetyScreen44", "T5 sequence (P28223 whole entry)": "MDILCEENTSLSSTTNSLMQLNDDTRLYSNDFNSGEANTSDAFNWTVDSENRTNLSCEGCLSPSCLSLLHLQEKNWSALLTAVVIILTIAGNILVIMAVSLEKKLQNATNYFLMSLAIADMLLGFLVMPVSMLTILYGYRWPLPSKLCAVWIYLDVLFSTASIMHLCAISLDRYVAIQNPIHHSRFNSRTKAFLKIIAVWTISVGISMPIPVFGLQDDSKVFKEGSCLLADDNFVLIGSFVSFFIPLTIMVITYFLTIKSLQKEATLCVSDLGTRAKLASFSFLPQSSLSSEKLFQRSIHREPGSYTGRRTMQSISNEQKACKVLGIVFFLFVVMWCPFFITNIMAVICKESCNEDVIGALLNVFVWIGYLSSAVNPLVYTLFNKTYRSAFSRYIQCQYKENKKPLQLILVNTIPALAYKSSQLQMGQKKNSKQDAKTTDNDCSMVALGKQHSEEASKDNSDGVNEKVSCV", "experiment": "SafetyScreen44: 5-HT2A", "format": "binding"}}, "note": "Read-outs that look alike come from different tables or passages of the source.", "data": [{"smiles": "CC(=O)NCCCC[C@@H]1NC(=O)[C@H](Cc2c[nH]c3c(C)cccc23)NC(=O)[C@H]([C@@H](C)O)NC(=O)[C@H](CC(N)=O)NC(=O)[C@@H](NC(C)=O)C(C)(C)SSC(C)(C)[C@@H](C(=O)N[C@@H](Cc2ccc(OCCN)cc2)C(=O)N[C@@H](Cc2ccc3ccccc3c2)C(=O)NC2(C(=O)N[C@@H](CCC(=O)O)C(=O)N[C@@H](CC(N)=O)C(=O)N[C@@H](Cc3cccnc3)C(=O)N(C)CC(N)=O)CCOCC2)NC1=O", "note": "[JNJ-77242113, S^3,1,S^3,6-cyclo[N-acetyl-3-sulfanyl-L-valyl-L-asparaginyl-L-threonyl-7-methyl-L-tryptophyl-N^6-acetyl-L-lysyl-3-sulfanyl-L-valyl-O-(2-aminoethyl)-L-tyrosyl-3-(naphthalen-2-yl)-L-alanyl-4-aminooxan-4-carbonyl-L-α-glutamyl-L-asparaginyl-3-(pyridin-3-yl)-L-alanyl-N^2-methylglycinamide]]", "values": [{"measurement": "inhibition at 10 µM", "setting": "[1]; 1st run, read-out: Percent inhibition of control ligand binding, H2, 1st run", "value": -26.6, "unit": "%"}, {"measurement": "inhibition at 10 µM", "setting": "[1]; 2nd run, read-out: Percent inhibition of control ligand binding, H2, 2nd run", "value": -22, "unit": "%"}, {"measurement": "inhibition at 10 µM", "setting": "[1]; mean of 2 runs, read-out: Percent inhibition of control ligand binding, H2, Mean", "value": -24.3, "unit": "%"}, {"measurement": "inhibition at 10 µM", "setting": "[2]; 1st run, read-out: Percent inhibition of control ligand binding, ETA, 1st run", "value": -31.3, "unit": "%"}, {"measurement": "inhibition at 10 µM", "setting": "[2]; 2nd run, read-out: Percent inhibition of control ligand binding, ETA, 2nd run", "value": -12.9, "unit": "%"}, {"measurement": "inhibition at 10 µM", "setting": "[2]; mean of 2 runs, read-out: Percent inhibition of control ligand binding, ETA, Mean", "value": -22.1, "unit": "%"}, {"measurement": "inhibition at 10 µM", "setting": "[3]; 1st run, read-out: Percent inhibition of control ligand binding, α1A, 1st run", "value": -4.6, "unit": "%"}, {"measurement": "inhibition at 10 µM", "setting": "[3]; 2nd run, read-out: Percent inhibition of control ligand binding, α1A, 2nd run", "value": 5.5, "unit": "%"}, {"measurement": "inhibition at 10 µM", "setting": "[3]; mean of 2 runs, read-out: Percent inhibition of control ligand binding, α1A, Mean", "value": 0.5, "unit": "%"}, {"measurement": "inhibition at 10 µM", "setting": "[4]; 1st run, read-out: Percent inhibition of control ligand binding, COX2, 1st run", "value": 7.8, "unit": "%"}, {"measurement": "inhibition at 10 µM", "setting": "[4]; 2nd run, read-out: Percent inhibition of control ligand binding, COX2, 2nd run", "value": -0.9, "unit": "%"}, {"measurement": "inhibition at 10 µM", "setting": "[4]; mean of 2 runs, read-out: Percent inhibition of control ligand binding, COX2, Mean", "value": 3.4, "unit": "%"}, {"measurement": "inhibition at 10 µM", "setting": "[5]; 1st run, read-out: Percent inhibition of control ligand binding, 5-HT2A, 1st run", "value": 7, "unit": "%"}, {"measurement": "inhibition at 10 µM", "setting": "[5]; 2nd run, read-out: Percent inhibition of control ligand binding, 5-HT2A, 2nd run", "value": 3.3, "unit": "%"}, {"measurement": "inhibition at 10 µM", "setting": "[5]; mean of 2 runs, read-out: Percent inhibition of control ligand binding, 5-HT2A, Mean", "value": 5.1, "unit": "%"}]}]}
